According to patent US7893299B2, “Interleukin-1 and tumor necrosis factor-αmodulators; syntheses of such modulators and methods of using such modulators” (Nereus Pharmaceuticals, Inc., priority 2005, dated 2011):
Where two headings read alike, the source gives them in different places.

Tests used:
[1] = tested on: IL-8 production; experiment: LPS-stimulated IL-8 levels in RPMI 8226 cells (ELISA); format: cell-based, human; details: 20 μM to 0.16 μM
Description: (§1) Ninety μl of 2.8×10^5/ml and 0.5 ml of 5×10^5/ml RMPI 8226 cells (#CCL-155C, American Type Culture Collection) were seeded in 96-well and 6-well plate in LGM-3 medium, respectively. Cells were cultured overnight at 37° C., 5% CO2 and 95% humidified air. 8-point serial dilution of TTL3 or formula (IIB-A1) was added to cells for 1 hr at the final concentration ranging from 20 μM to 0.16 μM. DMSO was used as control. After 1 hr, 50 ng/ml of LPS diluted in LGM-3 medium from 1 mg/ml stock solution was added to stimulate the cells for additional 10 hr. Supernatants were collected and IL-8 and IL-10 levels were analyzed by using the human IL-8 and IL-10 cytoset ELISA kits.

[2] = tested on: TNF-α production in HPBMC; experiment: TNF-α levels in LPS-stimulated Human Peripheral Blood Mononuclear cells (ELISA); format: cell-based; details: 5 hr drug exposure, read-out: EC50 Inhibition of TNF-α production
Description: Eighty μl of 3.1×10^5/ml Human Peripheral Blood Mononuclear cells (HPBMC) were seeded in Costar 3904 96-well plate in LGM-3 medium and cultured for 12 hr at 37° C., 5% CO2 and 95% humidified air. 10 μl of 8-point half-log serial dilutions of LT-1-85, CC-3-19, CC-3-13P, formula (IIB-A1) and CC-3-22 prepared in LGM-3 medium was added to the cells and incubated for 1 hr. Subsequently, 10 μl of 500 ng/ml lipopolysaccharide (LPS) diluted in LGM-3 medium from 1 mg/ml stock solution was added to the cells and incubation proceeded for another 4 hr at 37° C., 5% CO2 and 95% humidified air. SB203580, a known p38 MAP kinase inhibitor and DMSO were used as positive and negative controls, respectively. After 4 hr stimulation with LPS, the level of TNF-α from each sample was analyzed by using the human TNF-α cytoset ELISA kit. EC50 values (the drug concentration at which 50% of the maximal observed TNF-α production is inhibited) were determined using a standard sigmoidal dose response curve fitting algorithm (Prism 2.0, GraphPad Software Inc). A duplicate set of cell plates were assayed for cell viability using the Resazurin dye after the cells were incubated with test compounds for 24 hr. The fluorescence of the reduction product of Resazurin was measured using a Fusion microplate fluorometer (Packard Bioscience) with λex=535 nm and λem=590 nm filters. EC50 values (the drug concentration at which 50% of the maximal observed growth inhibition is established) were determined using a standard sigmoidal dose response curve fitting algorithm (Prism 2.0, GraphPad Software Inc).

[3] = tested on: IκBα phosphorylation; experiment: phosphorylation level of IκBα induced by LPS in RPMI 8226 cells; format: cell-based; details: formula (IIB-A1) 13 μM, TTL3 10 μM, 50 ng/ml LPS
Description: One ml/well of 2×10^6/ml RPMI 8226 cells (#CCL-155C, American Type Culture Collection) were seeded in 6-well plate in LGM-3 medium and cultured for overnight at 37° C., 5% CO2 and 95% humidified air. TTL3 and formula (IIB-A1) were added to RPMI 8226 cells at the final concentration of 10 μM and 13 μM for 1 hr, respectively. DMSO was used as a control. Cells were then stimulated with 50 ng/ml LPS diluted in LGM-3 medium from 1 mg/ml stock solution for 30 min, 1 hr, 2 hr and 4 hr. At the end of each time point, cells were harvested by centrifugation and cell pellets were washed once in ice-cold 1× DPBS. To prepare samples for SDS-PAGE, cells were lysed in RIPA buffer (50 mM Tris-HCl, pH7.4, 0.9% NaCl, 1% Triton X-100, 0.25% Na-deoxycholate, 1 mM EDTA, 2 mM Na3VO4 and 1× protease inhibitors cocktail) for 15 min on ice. Cell lysates were cleared by centrifugation at 14,000 rpm, 4° C. for 10 min. Protein concentrations of cell lysates were determined by BCA protein assay kit prior to SDS-PAGE. Equal amount of proteins from various cell lysates were resolved on 10% NuPage MES precast gels and transferred to nitrocellulose membranes according to the manufacturer's instructions. After transfer membranes were first blocked in BLOTTO (5% Non-fat dry milk in 1× DPBS buffer containing 0.1% Tween-20) at room temperature for 2 hr and then incubated with appropriate primary antibodies: anti-phospho-IκBα (1:1000) or anti-Tubulin (1:2000) for 2 hr. Antibody against tubulin was used as a control to confirm the equal loading of each sample. After the primary antibody incubation, membranes were washed briefly 2-3 times for 10 min each with BLOTTO and again incubated with sheep anti-mouse HRP conjugated secondary antibody for 1 hr. Following the secondary antibody incubation, membranes were washed extensively 4 times for 15 min each with PBST (1× DPBS plus 0.1% Tween-20). HRP activity was visualized by the enhanced chemiluminescence (ECL) detection system.

[4] = tested on: IL-10 production; experiment: LPS-stimulated IL-10 levels in RPMI 8226 cells (ELISA); format: cell-based, human; details: 20 μM to 0.16 μM
Description: as §1

[5] = tested on: TNF-α production in THP-1 cells; experiment: LPS-induced TNF-α production in differentiated THP-1 cells (FLISA); format: cell-based; details: Homo sapiens, read-out: Percent TNF-α Inhibition; for inhibition at 0.1 µg/mL: 100 ng/ml; for inhibition at 1 µg/mL: 1 ug/ml; for inhibition at 10 µg/mL: 10 ug/ml
Description: The ability to inhibit TNF-α production was analyzed in THP-1 cells, a human acute monocytic leukemia cell line that is widely used to assess monocyte functions. In order to induce maturation, THP-1 cells were plated at 1×10^6 cells/ml and pretreated with 5 nM PMA for two days. Differentiated THP-1 cells were pretreated with various concentrations of TTL3 or its analogs for 1 hour, followed by a 4 hour incubation with 1 μg of LPS (Sigma, St. Louse, Mo.). The p38 inhibitor (SB 203580; Sigma, St. Louis, Mo.) was used as a positive control. Supernatants were collected and stored at −80° C. until assayed for TNF-α activity. A resazurin assay was performed for each analog to evaluate the effects on cell metabolism and viability.
To detect the presence of human TNFα, fluorescent linked immunosorbent assay or FLISA was developed and optimized. 100 μl of beads (6 μm, Spherotech) coated with goat anti-mouse IgG (1 mg/ml, R and D Systems) were mixed with 4 μl of biotin-anti-hTNFα mouse IgG (0.1 mg/ml, R and D Systems) and 2 μl of FMAT Blue-streptavidin (0.1 mg/ml, Applied Biosystems). 50 μl of the mixtures was combined with 50 μl of the supernatant isolated from treated THP-1 cells and added to the black wall FLISA plates (Applied Biosystems) and incubated overnight. The plates were scanned at factory set PMT setting, and the values were plotted and analyzed by Applied Biosystems software.

SMILES | LPS-induced IL-8 production [1] | LPS-induced IL-8 production ([1]; listed as formula (IIB-A1)) | EC50 ([2]; Homo sapiens, PBMC, 5 h) | level of IκBα phosphorylation induced by LPS in RPMI 8226 cells [3] | level of IκBα phosphorylation induced by LPS in RPMI 8226 cells ([3]; listed as formula (IIB-A1)) | LPS-induced IL-10 production [4] | LPS-induced IL-10 production ([4]; listed as formula (IIB-A1)) | inhibition at 0.1 µg/mL [5] | inhibition at 1 µg/mL [5] | inhibition at 10 µg/mL [5] | EC50 [2]
C=C[C@@]1(C)CCC=C2[C@H]1CC[C@@H]1[C@](C)(C(=O)NC3CCCCC3)CCC[C@@]21C [Formula (IIB-A1), N-Cyclohexylamide Derivative of TTL] | reduces LPS-induced IL-8 and IL-10 production in a dose-dependent manner | inhibits the LPS-induced IL-8 and IL-10 production | 1.4 µM | decrease | greatly reduced | reduces LPS-induced IL-8 and IL-10 production in a dose-dependent manner | inhibits the LPS-induced IL-8 and IL-10 production |  |  |  | 
C=C[C@@]1(C)CCC=C2[C@H]1CC[C@@H]1[C@](C)(C(=O)N3CCOCC3)CCC[C@@]21C [LT-1-85] |  |  | 1.9 µM |  |  |  |  | 10% | 45% | 55% | 2.3 µM
C=C[C@@]1(C)CCC=C2[C@H]1CC[C@@H]1[C@](C)(C(=O)OC)CCC[C@@]21C [TTL3] |  |  |  | minimal |  | inhibits the IL-10 production in a dose-dependent manner |  | 30% | 55% | 70% | 
